Here are results for five molecules from ChEMBL document CHEMBL5370542, “Current advances of small molecule E3 ligands for proteolysis-targeting chimeras design” (Eur J Med Chem, 2023).

Test [1] deals with MV4-11. Put plainly: Antiproliferative activity against human MV4-11 cells assessed as inhibition of cell growth incubated for 3 days by CellTiter-Glo assay. In kind it is functional, cell-based. Conditions: MV4-11, 72 h. (In general: Cellular ATP, detected with luciferase, serves as a proxy for viable cell number.)
Test [2] addresses von Hippel-Lindau disease tumor suppressor (Homo sapiens, UniProt P40337). Put plainly: Binding affinity to VHL (unknown origin) assessed as inhibition constant.
Test [3] has as its target Bromodomain-containing protein 4 (Homo sapiens, UniProt O60885). Briefly: Induction of HiBit-tagged BRD4 degradation in human A549 cells incubated for 4 to 24 hrs by luminescence based Nano-Glo assay. In kind it is cell-based. In general terms: The HiBiT peptide binds its large partner to form an active luciferase.
Test [4] addresses T1, von Hippel-Lindau disease tumor suppressor/GTPase KRas (Homo sapiens, UniProt P01116+P40337, G12C). Put plainly: PROTAC activity at VHL/KRAS G12C mutant in human MIA PaCa-2 cells assessed as induction of KRAS G12C degradation by Immunoblot analysis. In kind it is cell-based.
The target in test [5] is T1, von Hippel-Lindau disease tumor suppressor/GTPase KRas. Put plainly: PROTAC activity at VHL/KRAS G12C mutant in human NCI-H23 cells assessed as induction of KRAS G12C degradation by Immunoblot analysis. In kind it is cell-based.
Test [6] shares this target. Put plainly: PROTAC activity at VHL/KRAS G12C mutant in human NCI- H2030 cells assessed as induction of KRAS G12C degradation by Immunoblot analysis. In kind it is cell-based. On the technique in general: A western blot detects proteins with antibodies after separation by electrophoresis.
Test [7] shares this target. Briefly: PROTAC activity at VHL/KRAS G12C mutant in human SW1573 cells assessed as induction of KRAS G12C degradation by Immunoblot analysis. In kind it is cell-based.
The target is the same in test [8]. Put plainly: PROTAC activity at VHL/KRAS G12C mutant in human NCI-H358 cells assessed as induction of KRAS G12C degradation by Immunoblot analysis. In kind it is cell-based.
Test [9] deals with von Hippel-Lindau disease tumor suppressor/Mitogen-activated protein kinase 14 (Homo sapiens) (UniProt Q16539+P40337). Briefly: PROTAC activity at VHL/N-terminal His-tagged human p38alpha expressed in Escherichia coli BL21-CodonPlus (DE3)-RIPL cells assessed as maximal degradation relative to control.
von Hippel-Lindau disease tumor suppressor/Mitogen-activated protein kinase 14 (Homo sapiens), sequence (P40337 whole entry partner): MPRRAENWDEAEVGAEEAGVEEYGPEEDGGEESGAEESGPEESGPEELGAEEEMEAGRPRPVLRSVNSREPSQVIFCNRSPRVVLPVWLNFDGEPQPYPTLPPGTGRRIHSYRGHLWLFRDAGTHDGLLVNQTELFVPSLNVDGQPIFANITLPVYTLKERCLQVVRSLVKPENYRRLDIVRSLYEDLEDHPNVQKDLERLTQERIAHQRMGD
von Hippel-Lindau disease tumor suppressor/Mitogen-activated protein kinase 14 (Homo sapiens), sequence (Q16539 2-360 limits assumed): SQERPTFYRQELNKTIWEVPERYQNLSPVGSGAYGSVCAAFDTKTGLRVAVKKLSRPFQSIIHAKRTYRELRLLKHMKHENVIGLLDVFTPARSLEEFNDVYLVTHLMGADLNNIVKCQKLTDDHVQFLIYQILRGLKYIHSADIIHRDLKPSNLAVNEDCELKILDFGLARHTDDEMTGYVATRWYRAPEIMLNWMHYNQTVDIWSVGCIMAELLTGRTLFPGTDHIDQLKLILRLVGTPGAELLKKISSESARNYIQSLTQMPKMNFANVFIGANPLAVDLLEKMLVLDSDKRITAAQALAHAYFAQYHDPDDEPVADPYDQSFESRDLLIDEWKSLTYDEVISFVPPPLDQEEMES
The target of test [10] is Protein cereblon/Mitogen-activated protein kinase 13 (Homo sapiens) (UniProt O15264+Q96SW2). Briefly: PROTAC activity at CRBN/N-terminal His-tagged human p38delta expressed in Escherichia coli BL21-CodonPlus (DE3)-RIPL cells assessed as maximal degradation degradation relative to control.
Protein cereblon/Mitogen-activated protein kinase 13 (Homo sapiens), sequence (O15264 whole entry, looked up): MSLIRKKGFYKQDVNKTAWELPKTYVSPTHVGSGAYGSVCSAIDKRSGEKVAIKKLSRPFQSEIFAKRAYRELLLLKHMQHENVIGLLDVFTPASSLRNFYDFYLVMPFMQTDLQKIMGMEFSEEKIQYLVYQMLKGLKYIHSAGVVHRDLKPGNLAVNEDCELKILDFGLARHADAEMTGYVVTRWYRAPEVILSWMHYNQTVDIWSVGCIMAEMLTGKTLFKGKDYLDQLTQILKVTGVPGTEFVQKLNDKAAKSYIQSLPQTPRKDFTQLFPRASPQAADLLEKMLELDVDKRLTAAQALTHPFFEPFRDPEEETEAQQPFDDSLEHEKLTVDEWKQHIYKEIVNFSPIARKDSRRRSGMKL
Protein cereblon/Mitogen-activated protein kinase 13 (Homo sapiens), sequence (Q96SW2 whole entry, looked up): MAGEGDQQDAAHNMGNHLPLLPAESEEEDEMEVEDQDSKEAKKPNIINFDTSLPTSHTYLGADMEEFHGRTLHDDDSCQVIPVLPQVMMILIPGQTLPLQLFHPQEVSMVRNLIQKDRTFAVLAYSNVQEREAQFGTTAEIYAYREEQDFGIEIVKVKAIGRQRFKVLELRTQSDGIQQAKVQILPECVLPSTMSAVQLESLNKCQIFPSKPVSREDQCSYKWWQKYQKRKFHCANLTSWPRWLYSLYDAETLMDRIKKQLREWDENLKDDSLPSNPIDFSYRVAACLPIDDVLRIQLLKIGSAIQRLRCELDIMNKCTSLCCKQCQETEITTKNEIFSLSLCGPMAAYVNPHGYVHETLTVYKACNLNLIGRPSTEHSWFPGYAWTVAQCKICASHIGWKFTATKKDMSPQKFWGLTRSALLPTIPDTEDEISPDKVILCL

T1 sequence (P01116 whole entry G12C, stated change not applied): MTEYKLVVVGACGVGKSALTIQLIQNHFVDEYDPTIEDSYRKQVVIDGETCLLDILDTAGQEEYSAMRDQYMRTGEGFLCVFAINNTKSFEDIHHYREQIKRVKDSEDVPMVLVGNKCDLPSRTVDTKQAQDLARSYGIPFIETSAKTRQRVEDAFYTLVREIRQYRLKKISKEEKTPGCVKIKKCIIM
T1 sequence (P40337 whole entry, stated change not applied): as the sequence (P40337 whole entry partner) above
von Hippel-Lindau disease tumor suppressor, sequence (P40337 whole entry): as the sequence (P40337 whole entry partner) above

As a reminder, the IC50 is the concentration needed to halve the response being measured. With `Cc1sc2c(c1C)C(c1ccc(Cl)cc1)=N[C@@H](CC(=O)NCCCCNC(=O)COc1cccc3c1C(=O)N(C1CCC(=O)NC1=O)C3=O)c1nnc(C)n1-2` (stereo not given in full), in test [1], the IC50 was 6.1 nM.
As a reminder, the Ki is the equilibrium dissociation constant of an inhibitor or competing ligand from its target. In the case of `Cc1ncsc1-c1ccc(CNC(=O)[C@@H]2C[C@@H](O)CN2C(=O)c2cccc(N)c2C)cc1`, in [2], the Ki worked out at 670 nM.
A word on the EC50: it is the midpoint of the concentration-response curve. In test [3], `Cc1cc([C@@H](C(=O)N2C[C@@H](O)C[C@@H]2C(=O)N[C@H](C)c2ccc(-c3scnc3C#CCOCCOCCOCCNC(=O)C[C@@H]3N=C(c4ccc(Cl)cc4)c4c(sc(C)c4C)-n4c(C)nnc43)cc2)C(C)C)on1` showed an EC50 of less than 50 nM.
Turning to `C=C(F)C(=O)N1CCN(c2nc(OC[C@@H]3CCCN3CCCOCCC(=O)N[C@H](C(=O)N3C[C@H](O)C[C@H]3C(=O)NCc3ccc(-c4scnc4C)cc3)C(C)(C)C)nc3c2CCN(c2cccc4cccc(Cl)c24)C3)C[C@@H]1CC#N`, the EC50 in [4], in test [5], in test [6], in [7] and in [8] was 250 nM throughout.
The Emax is the greatest response seen or fitted, relative to the assay's reference. In the case of `COc1cc2c(Oc3ccc(NC(=O)C4(C(=O)Nc5ccc(F)cc5)CC4)cc3F)ccnc2cc1OCCCN1CCOCC1`, the Emax in test [9] and in [10] was 91% throughout.
